Reference: patent US9340493B2, “Hydroxamic acid derivatives useful as antibacterial agents” (Pfizer Inc., priority 2008, dated 2016)
Values after ≈ are worked out from the molar mass of the structure shown.

Key:
Serratia marcescens = experiment: MIC determination, S. marcescens; type: cell-based; conditions: multidrug-resistant clinical isolate, * = arithmetic mean of 2-6 MIC determinations, read-out: MIC (ug/mL) S. marcescens
Procedure: MIC determinations: The in vitro antibacterial activity of compounds described in the Examples was evaluated by minimum inhibitory concentration (MIC) testing according to Clinical and Laboratory Standards Institute (CLSI, formerly NCCLS) guidelines. See: Clinical and Laboratory Standards Institute. Methods for Dilution Antimicrobial Susceptibility Tests for Bacteria that Grow Aerobically; Approved Standard-Seventh Edition. CLSI document M7-A7 [ISBN 1-56238-587-9]. Clinical and Laboratory Standards Institute, 940 West Valley Road, Suite 1400, Wayne, Pa. 19087-1898 USA, 2006; also Clinical and Laboratory Standards Institute. Performance Standards for Antimicrobial Susceptibility Testing; Eighteenth Informational Supplement. CLSI document M100-S18 [ISBN1-56238-653-0]. Clinical and Laboratory Standards Institute.
The following bacterial strains were used:
Serratia marcescens: Multidrug-resistant clinical isolate.

P. aeruginosa UI-18 = experiment: MIC determination, P. aeruginosa UI-18; type: cell-based; conditions: Pseudomonas aeruginosa, UI18; wild-type; * = arithmetic mean of 2-6 MIC determinations; read-out: MIC (ug/mL) P. aeruginosa UI-18
In short: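 MIC by broth dilution following CLSI M7-A7 and M100-S18 guidelines, tested against wild-type P. aeruginosa UI-18.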

Enterobacter aerogenes = experiment: MIC determination, E. aerogenes; type: cell-based; conditions: Klebsiella aerogenes; quinolone-resistant, ESBL-expressing clinical isolate; * = arithmetic mean of 2-6 MIC determinations; read-out: MIC (ug/mL) E. aerogenes
In short: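 Clinical E. aerogenes isolate, quinolone-resistant and ESBL-expressing. MIC measured in vitro by dilution testing according to CLSI guidelines (M7-A7, M100-S18).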

[1] = system: Acinetobacter baumanii/haemolyticus; experiment: MIC determination, A. baumanii/haemolyticus; type: cell-based; conditions: Acinetobacter baumannii; multidrug-resistant clinical isolate; * = arithmetic mean of 2-6 MIC determinations; read-out: MIC (ug/mL) A. baumanii/haemolyticus
In short: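 MICs were determined by CLSI broth dilution (M7-A7, M100-S18) against a multidrug-resistant clinical isolate of Acinetobacter baumanii/haemolyticus.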

P. aeruginosa PAO280 = experiment: MIC determination, P. aeruginosa PAO280; type: cell-based; conditions: Pseudomonas aeruginosa, PAO280, read-out: MIC (ug/mL) P. aeruginosa PAO280
In short: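 Broth dilution MIC per CLSI M7-A7/M100-S18 guidelines. Strain PAO280 lacks efflux pumps MexAB-oprM, MexXY and MexZ.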

[2] = system: Staphylococcus aureus ATCC 29213; experiment: MIC determination, S. aureus ATCC 29213; type: cell-based; conditions: ATCC29213, CLSI quality control reference strain, * = arithmetic mean of 2-6 MIC determinations, read-out: MIC (ug/mL) S. aureus ATCC 29213
In short: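 MIC was measured by dilution susceptibility testing following CLSI guidelines (M7-A7; M100-S18). The test organism is the CLSI quality-control reference strain.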

Klebsiella pneumoniae = experiment: MIC determination, K. pneumoniae; type: cell-based; conditions: ciprofloxacin-resistant, ESBL-expressing clinical isolate, * = arithmetic mean of 2-6 MIC determinations, read-out: MIC (ug/mL) K. pneumoniae
In short: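 MIC determined by broth dilution per CLSI M7-A7 and M100-S18 guidelines. Strain: ciprofloxacin-resistant, ESBL-expressing clinical isolate of K. pneumoniae.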

[3] = molecular target: T1, Pseudomonas aeruginosa LpxC enzyme (Pseudomonas aeruginosa, UniProt P47205); experiment: IC50 assay, LpxC enzyme from P. aeruginosa; type: biochemical; conditions: 0.5 nM enzyme, 25° C., pH 8.0, 20 min; ** = average of 2-8 assays
T1 construct: made in house; host or cells: E. coli
T1 sequence (P47205 1-303): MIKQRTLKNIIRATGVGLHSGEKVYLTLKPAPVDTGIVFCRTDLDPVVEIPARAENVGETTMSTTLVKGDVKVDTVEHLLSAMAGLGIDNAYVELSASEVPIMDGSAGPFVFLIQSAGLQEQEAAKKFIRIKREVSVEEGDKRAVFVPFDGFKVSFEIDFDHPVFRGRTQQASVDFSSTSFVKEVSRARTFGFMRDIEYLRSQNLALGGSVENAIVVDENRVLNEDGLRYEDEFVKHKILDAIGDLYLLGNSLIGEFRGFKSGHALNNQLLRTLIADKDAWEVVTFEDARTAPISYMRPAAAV
In short: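 P. aeruginosa LpxC (0.5 nM, expressed in E. coli) reacted with 0.5 uM ³H-acetyl-labelled UDP-3-O-(R-3-hydroxydecanoyl)-GlcNAc in 50 mM sodium phosphate pH 8.0 with 1 mg/ml BSA at 25 °C for 20 min. Charcoal stopped the reaction, and filtrate radioactivity was counted by scintillation after no-enzyme background subtraction.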

Escherichia coli EC-1 = experiment: MIC determination, E. coli EC-1; type: cell-based; conditions: EC1, EC-1: VOGEL, * = arithmetic mean of 2-6 MIC determinations, read-out: MIC (ug/mL) E. coli EC-1
In short: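 Minimum inhibitory concentration against Escherichia coli EC-1 was determined in vitro by dilution susceptibility testing under CLSI M7-A7 and M100-S18 guidelines.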

| SMILES | MIC (Serratia marcescens) [µg/mL] | MIC (P. aeruginosa UI-18) [µg/mL] | MIC (Enterobacter aerogenes) [µg/mL] | melting point [°C] | MIC [1] [µg/mL] | MIC (P. aeruginosa PAO280) [µg/mL] | MIC [2] [µg/mL] | MIC (Klebsiella pneumoniae) [µg/mL] | IC50 [3] [µM] | MIC (Escherichia coli EC-1) [µg/mL] |
| --- | --- | --- | --- | --- | --- | --- | --- | --- | --- | --- |
| CC(OCc1ccc(-c2ccccc2)cc1)C(=O)NO (stereo not shown) [Example 54, 2-(biphenyl-4-ylmethoxy)-N-hydroxypropanamide] | > 64 | > 64 | > 64 | 120 to 123 | > 64 | 32 (≈ 118 µM) | > 64 | > 64 | 0.406 | > 64 |
| O=C(NO)C1(OCc2ccc(-c3ccccc3)cc2)CCOCC1 [Example 58, 4-(biphenyl-4-ylmethoxy)-N-hydroxytetrahydro-2H-pyran-4-carboxamide] | > 64 | > 64 | > 64 | – | > 64 | 4 (≈ 12.2 µM) | > 64 | > 64 | 0.04 | > 64 |
| CCOCC[C@H](O)[C@](C)(OCc1ccc(-c2ccccc2)cc1)C(=O)NO [Example 8, (2S,3S)-2-(biphenyl-4-ylmethoxy)-5-ethoxy-N,3-dihydroxy-2-methylpentanamide] | > 64 | > 64 | > 64 | – | > 64 | 8 (≈ 21.4 µM) | > 64 | > 64 | 0.0284 | > 64 |
| C[C@@](OCc1ccc(-c2ccccc2)cc1)(C(=O)NO)[C@@H](O)CC(F)(F)F [Example 7, (2S,3S)-2-(biphenyl-4-ylmethoxy)-N,3-dihydroxy-2-methyl-5,5,5-trifluoropentanamide] | > 64 | > 64 | > 64 | – | > 64 | 2 (≈ 5.22 µM) | 64 (≈ 167 µM) | > 64 | 0.00953 | > 64 |
| O=C(NO)C(CO)(OCc1ccc(-c2ccccc2)cc1)C(F)(F)F (stereo not shown) [Example 50, 2-(biphenyl-4-ylmethoxy)-3,3,3-trifluoro-N-hydroxy-2-(hydroxymethyl)propanamide] | > 64 | 48 (≈ 135 µM) | > 64 | – | > 64 | 1 (≈ 2.81 µM) | > 64 | > 64 | 0.0147 | > 64 |
| COCC(CO)(OCc1ccc(-c2ccccc2)cc1)C(=O)NO (stereo not shown) [Example 56, 2-(biphenyl-4-ylmethoxy)-N,3-dihydroxy-2-(methoxymethyl)propanamide] | > 64 | > 64 | > 64 | – | > 64 | 4 (≈ 12.1 µM) | > 64 | > 64 | 0.0222 | > 64 |
| C[C@@](OCc1ccc(-c2ccccc2)cc1)(C(=O)NO)[C@@H](O)c1c[nH]cn1 [Example 9, (2S,3S)-2-(biphenyl-4-ylmethoxy)-N,3-dihydroxy-3-(1H-imidazol-4-yl)-2-methylpropanamide] | > 64 | 8 (≈ 21.8 µM) | > 64 | – | > 64 | 0.125 (≈ 0.34 µM) | > 64 | > 64 | 0.00084 | > 64 |
